Test results from ChEMBL document CHEMBL3046665, “In vitro cytotoxicity, antimicrobial, and metal-chelating activity of triterpene saponins from tea seed grown in Kangra valley, India” (Med Chem Res, 2013).
Where a name gives a salt, the structure may show the parent alone.

Legend:
Format in all cases: functional
[1] = test system: MCF7; test: Cytotoxicity against Homo sapiens (human) MCF7 cells assessed as growth inhibition at 1 uM after 48 hr by SRB assay; conditions: MCF7, 48 h, read-out: GI
[2] = test system: OVCAR-5; test: Cytotoxicity against Homo sapiens (human) OVCAR5 cells assessed as growth inhibition at 1 uM after 48 hr by SRB assay; conditions: OVCAR-5, 48 h, read-out: GI
[3] = test system: PC-3; test: Cytotoxicity against Homo sapiens (human) PC3 cells assessed as growth inhibition at 1 uM after 48 hr by SRB assay; conditions: PC-3, 48 h, read-out: GI
[4] = test system: COLO 205; test: Cytotoxicity against Homo sapiens (human) COLO205 cells assessed as growth inhibition at 1uM after 48 hr by SRB assay; conditions: COLO 205, 48 h, read-out: GI

In the case of `COc1cccc2c1C(=O)c1c(O)c3c(c(O)c1C2=O)C[C@@](O)(C(=O)CO)C[C@@H]3O[C@H]1C[C@H](N)[C@H](O)[C@H](C)O1` [DOXORUBICIN HYDROCHLORIDE], the inhibition of growth at 1 µM [1] was 72%, the inhibition of growth at 1 µM [2] was 60% and the inhibition of growth at 1 µM [3] was 66%. For the same compound, the inhibition of growth at 1 µM [4] was 69%.

`CC(=O)O[C@H]1C(=O)[C@@]2(C)[C@H]([C@H](OC(=O)c3ccccc3)[C@]3(O)C[C@H](OC(=O)[C@H](O)[C@@H](NC(=O)c4ccccc4)c4ccccc4)C(C)=C1C3(C)C)[C@]1(OC(C)=O)CO[C@@H]1C[C@@H]2O` [PACLITAXEL] was tested, and the inhibition of growth at 1 µM [1] was 80%, the inhibition of growth at 1 µM [2] was 73% and the inhibition of growth at 1 µM [3] was 71%. For the same compound, the inhibition of growth at 1 µM [4] was 57%.
